Paper PMC4032624 (Molecular cell, 2013)

How the values were obtained:
pT2609 and γH2Ax foci = experiment: Confocal immunofluorescence of pT2609-DNA-PKcs and γH2Ax foci in U2OS cells; conditions: UNC0638 together with ETO, Pearson correlation coefficient, n=5
G9a/GLC = experiment: H3K9me2 level in U2OS cells; assay type: cell-based; conditions: incubation with inhibitor vs solvent DMSO
γH2Ax = γH2Ax level by Western blot in U2OS cells; assay type: cell-based; conditions: UNC0638 with etoposide

COc1cc2c(NC3CCN(C(C)C)CC3)nc(C3CCCCC3)nc2cc1OCCCN1CCCC1 [UNC0638]
colocalization pattern of γH2Ax and pT2609 foci (pT2609 and γH2Ax foci): did not significantly alter
H3K9me2 level (G9a/GLC): decreased
effect on etoposide-induced γH2Ax pattern (γH2Ax): not affected
